Test in all cases: radiometric filter-binding kinase assay, Kinaseprofiler
Test [1] deals with GSK3A (human), P49840 [S449A]. As to conditions: ATP 10 µM.
The subject of test [2] is TAOK3 (human), Q9H2K8 [N47S]. As to conditions: ATP 15 µM.
Test [3] concerns AKT1 (human), P31749 [S478G]. As to conditions: ATP 155 µM.
Test [4] deals with SGK2 (human), Q9HBY8 [S416D]. As to conditions: ATP 15 µM.
Test [5] has as its system TEK (human), Q02763 [Q939H/Q940H]. Conditions: ATP 200 µM.
The target of test [6] is CDK7 CCNH MNAT1 (human) (UniProt P50613+P51948+P51946). As to conditions: ATP 90 µM.
Test [7] concerns the target CDK2 CCNE1 (human) (UniProt P24941+P24864). Conditions: ATP 120 µM.
In test [8] the target is CDK2 CCNA2 (human) (UniProt P24941+P20248). Conditions: ATP 45 µM.
Test [9] concerns the target CDK3 CCNE1 (human) (UniProt Q00526+P24864). Conditions: ATP 200 µM.
For test [10], the target named is MTOR FKBP1A (human) (UniProt P42345+P62942). Conditions: ATP 45 µM.
Test [11] deals with PRKAA2 PRKAB1 PRKAG1 (human) (UniProt P54619+P54646+Q9Y478). As to conditions: ATP 45 µM.

Sequence of TEK (human), Q02763 [Q939H/Q940H] (Q02763 whole entry Q939H/Q940H, looked up): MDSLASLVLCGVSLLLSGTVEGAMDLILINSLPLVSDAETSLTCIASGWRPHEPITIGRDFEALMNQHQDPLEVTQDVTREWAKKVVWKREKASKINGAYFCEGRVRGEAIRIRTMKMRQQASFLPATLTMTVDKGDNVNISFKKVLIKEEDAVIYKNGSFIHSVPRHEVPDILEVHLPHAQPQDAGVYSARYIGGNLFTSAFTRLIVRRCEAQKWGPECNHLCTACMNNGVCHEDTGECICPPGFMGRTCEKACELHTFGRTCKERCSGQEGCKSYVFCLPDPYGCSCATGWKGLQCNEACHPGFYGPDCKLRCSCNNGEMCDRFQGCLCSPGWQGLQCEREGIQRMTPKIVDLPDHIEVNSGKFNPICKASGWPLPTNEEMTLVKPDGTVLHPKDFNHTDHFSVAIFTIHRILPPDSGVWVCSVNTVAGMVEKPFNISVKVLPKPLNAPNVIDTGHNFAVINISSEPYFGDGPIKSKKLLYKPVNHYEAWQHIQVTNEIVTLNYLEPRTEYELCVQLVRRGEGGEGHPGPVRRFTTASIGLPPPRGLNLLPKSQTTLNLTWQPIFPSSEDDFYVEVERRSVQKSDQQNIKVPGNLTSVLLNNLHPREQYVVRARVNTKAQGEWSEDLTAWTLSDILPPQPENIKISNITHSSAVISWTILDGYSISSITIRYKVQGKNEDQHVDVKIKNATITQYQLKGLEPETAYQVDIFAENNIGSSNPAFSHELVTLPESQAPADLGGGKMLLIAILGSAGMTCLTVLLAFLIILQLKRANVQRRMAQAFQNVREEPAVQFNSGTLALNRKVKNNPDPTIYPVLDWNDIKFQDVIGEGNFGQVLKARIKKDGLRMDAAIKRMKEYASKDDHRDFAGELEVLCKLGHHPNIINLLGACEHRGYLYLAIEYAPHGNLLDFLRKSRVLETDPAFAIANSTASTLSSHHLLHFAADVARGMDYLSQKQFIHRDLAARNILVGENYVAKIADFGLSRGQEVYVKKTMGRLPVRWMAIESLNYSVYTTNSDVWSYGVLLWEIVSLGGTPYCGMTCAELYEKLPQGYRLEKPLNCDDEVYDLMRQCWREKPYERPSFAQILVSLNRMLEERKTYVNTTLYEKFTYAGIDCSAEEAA
Sequence of TAOK3 (human), Q9H2K8 [N47S] (Q9H2K8 whole entry, looked up, stated change not applied): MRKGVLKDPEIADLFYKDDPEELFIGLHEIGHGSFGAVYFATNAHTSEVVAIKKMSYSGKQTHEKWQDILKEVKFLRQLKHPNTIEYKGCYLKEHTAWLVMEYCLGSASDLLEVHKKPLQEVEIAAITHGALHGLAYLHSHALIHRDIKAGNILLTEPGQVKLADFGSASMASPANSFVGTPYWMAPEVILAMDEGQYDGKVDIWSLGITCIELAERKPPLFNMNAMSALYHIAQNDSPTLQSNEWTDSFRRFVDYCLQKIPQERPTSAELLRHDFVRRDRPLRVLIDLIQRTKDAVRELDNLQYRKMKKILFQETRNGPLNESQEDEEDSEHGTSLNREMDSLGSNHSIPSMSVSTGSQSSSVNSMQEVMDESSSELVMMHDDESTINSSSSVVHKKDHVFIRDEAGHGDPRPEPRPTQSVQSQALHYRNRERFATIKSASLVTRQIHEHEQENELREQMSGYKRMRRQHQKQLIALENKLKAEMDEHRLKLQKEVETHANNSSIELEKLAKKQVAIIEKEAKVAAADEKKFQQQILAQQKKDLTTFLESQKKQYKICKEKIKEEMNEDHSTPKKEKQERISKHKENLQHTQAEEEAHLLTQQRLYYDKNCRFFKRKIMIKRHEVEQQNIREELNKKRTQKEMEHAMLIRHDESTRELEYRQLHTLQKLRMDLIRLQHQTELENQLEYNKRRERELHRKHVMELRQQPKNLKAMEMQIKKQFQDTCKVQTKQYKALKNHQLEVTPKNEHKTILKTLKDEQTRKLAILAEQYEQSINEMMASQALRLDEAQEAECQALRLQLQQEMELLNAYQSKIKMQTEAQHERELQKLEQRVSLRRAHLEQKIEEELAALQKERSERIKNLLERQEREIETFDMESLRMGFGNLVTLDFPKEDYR
Sequence of CDK7 CCNH MNAT1 (human) (P50613 whole entry, looked up): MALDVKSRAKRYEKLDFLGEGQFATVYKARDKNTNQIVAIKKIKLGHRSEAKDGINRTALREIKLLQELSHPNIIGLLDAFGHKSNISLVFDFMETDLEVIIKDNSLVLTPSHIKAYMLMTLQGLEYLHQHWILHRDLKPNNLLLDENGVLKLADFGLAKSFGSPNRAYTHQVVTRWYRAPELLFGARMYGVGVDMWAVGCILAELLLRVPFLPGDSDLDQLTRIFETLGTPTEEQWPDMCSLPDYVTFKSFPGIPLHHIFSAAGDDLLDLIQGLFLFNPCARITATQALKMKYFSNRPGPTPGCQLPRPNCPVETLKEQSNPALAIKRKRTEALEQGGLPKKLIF
Sequence of CDK7 CCNH MNAT1 (human) (P51946 whole entry, looked up): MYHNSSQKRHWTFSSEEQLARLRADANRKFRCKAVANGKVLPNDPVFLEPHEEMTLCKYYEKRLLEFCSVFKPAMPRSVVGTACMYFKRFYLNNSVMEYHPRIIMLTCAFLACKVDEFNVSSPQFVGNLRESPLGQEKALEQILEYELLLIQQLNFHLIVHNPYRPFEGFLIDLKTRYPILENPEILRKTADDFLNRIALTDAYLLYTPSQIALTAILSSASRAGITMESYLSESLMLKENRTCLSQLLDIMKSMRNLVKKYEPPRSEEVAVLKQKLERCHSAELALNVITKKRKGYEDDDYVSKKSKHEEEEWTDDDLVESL
Sequence of CDK7 CCNH MNAT1 (human) (P51948 whole entry, looked up): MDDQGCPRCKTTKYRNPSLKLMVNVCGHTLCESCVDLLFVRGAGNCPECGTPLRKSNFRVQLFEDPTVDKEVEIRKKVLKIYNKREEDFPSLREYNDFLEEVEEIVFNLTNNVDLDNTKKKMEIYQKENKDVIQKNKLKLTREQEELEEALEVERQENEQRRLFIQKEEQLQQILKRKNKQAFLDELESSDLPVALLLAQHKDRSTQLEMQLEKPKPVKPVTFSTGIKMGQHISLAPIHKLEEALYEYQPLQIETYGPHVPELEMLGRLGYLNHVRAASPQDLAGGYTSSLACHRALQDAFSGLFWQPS
Sequence of GSK3A (human), P49840 [S449A] (P49840 whole entry, looked up, stated change not applied): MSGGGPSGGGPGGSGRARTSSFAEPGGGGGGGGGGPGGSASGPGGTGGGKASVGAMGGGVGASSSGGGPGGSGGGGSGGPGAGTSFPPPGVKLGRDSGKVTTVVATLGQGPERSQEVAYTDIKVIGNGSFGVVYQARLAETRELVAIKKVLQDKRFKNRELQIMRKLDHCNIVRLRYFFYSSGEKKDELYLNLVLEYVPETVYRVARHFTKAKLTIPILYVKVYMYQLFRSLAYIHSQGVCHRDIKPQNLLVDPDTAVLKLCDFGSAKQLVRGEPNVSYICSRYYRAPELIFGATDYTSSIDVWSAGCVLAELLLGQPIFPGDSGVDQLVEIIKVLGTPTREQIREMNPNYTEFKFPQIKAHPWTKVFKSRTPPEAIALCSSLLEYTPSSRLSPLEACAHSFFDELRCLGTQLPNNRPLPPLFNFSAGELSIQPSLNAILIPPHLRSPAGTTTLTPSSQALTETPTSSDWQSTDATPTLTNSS
Sequence of CDK2 CCNA2 (human) (P20248 whole entry, looked up, other chains not shown): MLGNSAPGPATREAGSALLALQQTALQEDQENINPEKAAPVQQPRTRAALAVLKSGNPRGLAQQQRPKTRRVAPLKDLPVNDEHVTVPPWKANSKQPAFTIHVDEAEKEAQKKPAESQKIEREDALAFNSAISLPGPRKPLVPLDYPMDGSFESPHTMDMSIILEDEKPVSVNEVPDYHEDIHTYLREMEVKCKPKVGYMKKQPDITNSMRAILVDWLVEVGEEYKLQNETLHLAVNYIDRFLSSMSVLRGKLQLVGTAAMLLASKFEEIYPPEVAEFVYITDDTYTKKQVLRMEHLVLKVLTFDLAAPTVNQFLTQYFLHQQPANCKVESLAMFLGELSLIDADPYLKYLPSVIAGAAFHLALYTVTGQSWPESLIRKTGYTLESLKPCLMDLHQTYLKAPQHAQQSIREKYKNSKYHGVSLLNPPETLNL
Sequence of MTOR FKBP1A (human) (P62942 whole entry, looked up, other chains not shown): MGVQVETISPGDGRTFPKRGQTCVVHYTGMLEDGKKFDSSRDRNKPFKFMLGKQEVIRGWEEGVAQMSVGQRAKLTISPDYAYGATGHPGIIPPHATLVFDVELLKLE
Sequence of AKT1 (human), P31749 [S478G] (P31749 whole entry, looked up, stated change not applied): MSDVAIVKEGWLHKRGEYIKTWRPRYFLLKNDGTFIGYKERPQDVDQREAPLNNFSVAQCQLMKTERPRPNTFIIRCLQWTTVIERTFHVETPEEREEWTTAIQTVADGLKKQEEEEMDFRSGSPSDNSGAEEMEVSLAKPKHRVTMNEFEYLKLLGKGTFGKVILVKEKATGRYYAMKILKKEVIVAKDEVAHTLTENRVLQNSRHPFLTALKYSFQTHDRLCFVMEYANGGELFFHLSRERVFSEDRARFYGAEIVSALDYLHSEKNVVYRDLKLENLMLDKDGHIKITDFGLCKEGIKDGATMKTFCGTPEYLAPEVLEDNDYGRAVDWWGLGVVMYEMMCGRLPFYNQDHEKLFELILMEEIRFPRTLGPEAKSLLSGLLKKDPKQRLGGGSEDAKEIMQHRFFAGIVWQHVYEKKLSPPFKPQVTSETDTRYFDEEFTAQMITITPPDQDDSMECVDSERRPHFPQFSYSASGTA
Sequence of SGK2 (human), Q9HBY8 [S416D] (Q9HBY8 whole entry, looked up, stated change not applied): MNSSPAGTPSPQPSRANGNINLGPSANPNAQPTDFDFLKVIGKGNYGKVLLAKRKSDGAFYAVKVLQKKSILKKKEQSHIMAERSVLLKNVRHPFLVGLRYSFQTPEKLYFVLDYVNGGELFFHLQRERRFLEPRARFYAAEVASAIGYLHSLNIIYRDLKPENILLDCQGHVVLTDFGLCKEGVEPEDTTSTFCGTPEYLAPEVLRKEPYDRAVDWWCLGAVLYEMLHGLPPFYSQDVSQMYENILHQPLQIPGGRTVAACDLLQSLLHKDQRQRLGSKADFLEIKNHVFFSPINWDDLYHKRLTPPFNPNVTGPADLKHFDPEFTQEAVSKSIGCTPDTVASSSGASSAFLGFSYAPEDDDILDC

What is called residual activity is the signal under treatment as a percentage of the control signal. For `O=C1Nc2ccccc2/C1=C1\Nc2ccccc2\C1=N/O`, the residual activity in [1] (compound 1.0 µM) amounted to 5%; in test [1] (compound 10.0 µM), 1%; in test [2] (compound 1.0 µM), 85%; in test [2] (compound 10.0 µM), 28%; in test [3] (compound 1.0 µM) it was 107%; in [3] (compound 10.0 µM), 98%. The residual activity in test [4] (compound 1.0 µM) was 61%; in test [4] (compound 10.0 µM), 24%; in [5] (compound 1.0 µM) it was 103%; in test [5] (compound 10.0 µM), 41%.
Regarding `CO[C@H]1CC2CC[C@@H](C)[C@@](O)(O2)C(=O)C(=O)N2CCCC[C@H]2C(=O)OC([C@H](C)C[C@@H]2CC[C@@H](O)[C@H](OC)C2)CC(=O)[C@H](C)/C=C(\C)[C@@H](O)[C@@H](OC)C(=O)[C@H](C)C[C@H](C)/C=C/C=C/C=C/1C` (stereo partly drawn), the residual activity in test [6] (compound 1.0 µM) was found to be 88%; in test [6] (compound 10.0 µM) it was 94%; in [7] (compound 1.0 µM), 105%; in [7] (compound 10.0 µM), 96%; in test [8] (compound 1.0 µM), 129%; in test [8] (compound 10.0 µM), 113%. For the same compound, the residual activity in [9] (compound 1.0 µM) was 90%; in [9] (compound 10.0 µM), 86%; in test [10] (compound 1.0 µM) it was -17%; in [10] (compound 10.0 µM), 4%; in [11] (compound 1.0 µM) it was 93%; in test [11] (compound 10.0 µM), 107%.
For `O=C(Nc1cccc(Nc2nccc(Nc3cccc(C(F)(F)F)c3)n2)c1)C1CC1`, the residual activity in test [5] (compound 10.0 µM) was found to be 17%.
